Among the data in PubChem BioAssay AID1963963 (Molecular Pharmacology Branch, DTP, NCI, 2024) are IC50 and viability, T/C values, retold here.

In the assay the test system is 958667-338-R-J2-PDC tumor spheroids viability. Put plainly: Anticancer human tumor 958667-338-R-J2-PDC patient-derived colon adenocarcinoma cell line growth inhibition [PI3K]. As to conditions: spheroids with HUVEC and MSC; for viability, T/C: stronger effect = lower value. Put shortly:
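Viability of mixed-cell spheroids was determined after exposure to pairwise combinations, one partner being inavolisib, alpelisib, duvelisib or copanlisib. Highest tested concentration matched clinical Cmax where known and 10 microM where not, descending in half-log steps.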

[1] abbreviates: curve of first compound, second compound 0.0316 µM.
The mark [2] stands for this setting: curve of first compound, second compound 0.1 µM.
Setting [3] is: curve of first compound, second compound 0.316 µM.
[4] abbreviates: curve of first compound, second compound 1 µM.
The mark [5] stands for this setting: second compound 0.0316 µM, first compound 0.0316 µM.
Setting [6] is: second compound 0.0316 µM, first compound 0.1 µM.
The mark [7] stands for this setting: second compound 0.0316 µM, first compound 0.316 µM.
The mark [8] stands for this setting: second compound 0.0316 µM, first compound 1 µM.
Setting [9] is: second compound 0.1 µM, first compound 0.0316 µM.
Where [10] appears, read: second compound 0.1 µM, first compound 0.1 µM.
Where [11] appears, read: second compound 0.1 µM, first compound 0.316 µM.
Where [12] appears, read: second compound 0.1 µM, first compound 1 µM.
Setting [13] is: second compound 0.316 µM, first compound 0.0316 µM.
Where [14] appears, read: second compound 0.316 µM, first compound 0.1 µM.
[15] abbreviates: second compound 0.316 µM, first compound 0.316 µM.
The mark [16] stands for this setting: second compound 0.316 µM, first compound 1 µM.
The mark [17] stands for this setting: second compound 1 µM, first compound 0.0316 µM.
Setting [18] is: second compound 1 µM, first compound 0.1 µM.
[19] abbreviates: second compound 1 µM, first compound 0.316 µM.
The mark [20] stands for this setting: second compound 1 µM, first compound 1 µM.
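Further: spheroids exposed to compounds for seven days before readout.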

`CNC(=O)c1ccc(N2C(=S)N(c3ccc(C#N)c(C(F)(F)F)c3)C(=O)C2(C)C)cc1F` + Cc1nc(NC(=O)N2CCCC2C(N)=O)sc1-c1ccnc(C(C)(C)C(F)(F)F)c1: the concentration for half-maximal inhibition (IC50) (usually the point on the concentration scale where inhibition reaches its midpoint) under setting [1] is > 10000 nM; the IC50 under setting [2] is > 10000 nM; the IC50 under setting [3] is > 10000 nM; the IC50 under setting [4] is > 10000 nM; the IC50 (curve of first compound, second compound 3.16 µM) is > 10000 nM; the IC50 (curve of first compound, second compound 10 µM) was > 10000 nM. Also, the viability, T/C (in general, the ratio of treated to control) is 109% under setting [5]; 94.6% under setting [6]; 93.8% under setting [7]; 131% under setting [8]; 101% (second compound 0.0316 µM, first compound 3.16 µM); 90.5% (second compound 0.0316 µM, first compound 10 µM). Moreover, the viability, T/C runs as follows: under setting [9], 105%; under setting [10], 112%; under setting [11], 103%; under setting [12], 91.9%; (second compound 0.1 µM, first compound 3.16 µM) 134%; (second compound 0.1 µM, first compound 10 µM) 93.2%. For the same compound, the viability, T/C is 78.9% under setting [13]; 102% under setting [14]; 93.2% under setting [15]; 76.4% under setting [16]; 98% (second compound 0.316 µM, first compound 3.16 µM); 93.6% (second compound 0.316 µM, first compound 10 µM). Further, the viability, T/C was 74.5% under setting [17]; 71.2% under setting [18]; 88% under setting [19]; 70.8% under setting [20]; 97.7% (second compound 1 µM, first compound 3.16 µM); 82.4% (second compound 1 µM, first compound 10 µM). The viability, T/C was 76.9% (second compound 3.16 µM, first compound 0.0316 µM); 69% (second compound 3.16 µM, first compound 0.1 µM); 64.3% (second compound 3.16 µM, first compound 0.316 µM); 78.5% (second compound 3.16 µM, first compound 1 µM); 72.3% (second compound 3.16 µM, first compound 3.16 µM); 65.2% (second compound 3.16 µM, first compound 10 µM). The viability, T/C is 65.2% (second compound 10 µM, first compound 0.0316 µM); 67.3% (second compound 10 µM, first compound 0.1 µM); 58.6% (second compound 10 µM, first compound 0.316 µM); 62.1% (second compound 10 µM, first compound 1 µM); 60.9% (second compound 10 µM, first compound 3.16 µM); 46.9% (second compound 10 µM, first compound 10 µM).
As to `CC1(C)CCC(Nc2ncc(C(F)(F)F)c(-c3c[nH]c4c(P(C)(C)=O)c(C#N)ccc34)n2)CN1` (centres undefined), the viability, T/C is 97.9% [middle of 4 runs] (compound 0.0316 µM), 66.5% [middle of 4 runs] (compound 1 µM), 64.5% [middle of 4 runs] (compound 3.16 µM) and 36.4% [middle of 4 runs] (compound 10 µM). For the same compound, the half-maximal inhibitory concentration (IC50) (curve of compound) is 5.09 µM [middle of 4 runs].
As for `CCN1CCN(Cc2ccc(Nc3ncc(F)c(-c4cc(F)c5nc(C)n(C(C)C)c5c4)n3)nc2)CC1` + COc1c(OCCCN2CCOCC2)ccc2c3n(c(=NC(=O)c4cnc(N)nc4)nc12)CCN3, the IC50 is > 1000 nM (curve of first compound, second compound 0.00316 µM); > 1000 nM (curve of first compound, second compound 0.01 µM); 344 nM under setting [1]; 4.7 nM under setting [2]; < 3.16 nM under setting [3]; < 3.16 nM under setting [4]. Also, the viability, T/C reads like this: (second compound 0.00316 µM, first compound 0.00316 µM) 100%; (second compound 0.00316 µM, first compound 0.01 µM) 106%; (second compound 0.00316 µM, first compound 0.0316 µM) 82.9%; (second compound 0.00316 µM, first compound 0.1 µM) 67.2%; (second compound 0.00316 µM, first compound 0.316 µM) 68.3%; (second compound 0.00316 µM, first compound 1 µM) 64.3%. The viability, T/C was 69.7% (second compound 0.01 µM, first compound 0.00316 µM); 87.8% (second compound 0.01 µM, first compound 0.01 µM); 87.8% (second compound 0.01 µM, first compound 0.0316 µM); 65.5% (second compound 0.01 µM, first compound 0.1 µM); 57.4% (second compound 0.01 µM, first compound 0.316 µM); 51.5% (second compound 0.01 µM, first compound 1 µM). Also, the viability, T/C was 67.5% (second compound 0.0316 µM, first compound 0.00316 µM); 61.2% (second compound 0.0316 µM, first compound 0.01 µM); 58.6% under setting [5]; 57.3% under setting [6]; 48.4% under setting [7]; 46.1% under setting [8]. Besides, the viability, T/C is, setting by setting: (second compound 0.1 µM, first compound 0.00316 µM) 53.9%; (second compound 0.1 µM, first compound 0.01 µM) 41.4%; under setting [9], 40.1%; under setting [10], 39%; under setting [11], 33.6%; under setting [12], 32.1%. Moreover, the viability, T/C (second compound 0.316 µM, first compound 0.00316 µM) is 34.4%; the viability, T/C (second compound 0.316 µM, first compound 0.01 µM) is 33.4%; the viability, T/C under setting [13] was 33.8%; the viability, T/C under setting [14] is 22.3%; the viability, T/C under setting [15] is 22.2%; the viability, T/C under setting [16] is 25.3%. The viability, T/C was 16.9% (second compound 1 µM, first compound 0.00316 µM); 14.7% (second compound 1 µM, first compound 0.01 µM); 16.5% under setting [17]; 14.3% under setting [18]; 16.6% under setting [19]; 18.1% under setting [20].
`C=CC(=O)N1CCN(c2nc(=O)n(-c3c(C)ccnc3C(C)C)c3nc(-c4c(O)cccc4F)c(F)cc23)C(C)C1` (centres undefined): the viability, T/C (compound 0.1 µM) is 108% [middle of 4 runs]; the viability, T/C (compound 0.316 µM) is 103% [middle of 4 runs]; the viability, T/C (compound 1 µM) is 114% [middle of 4 runs]; the viability, T/C (compound 3.16 µM) is 113% [middle of 4 runs]. Moreover, where the note is “curve of compound”, the IC50 is > 10000 nM.
